Format in all cases: biochemical
Assay [1] deals with T1, human JAK3 (Homo sapiens, UniProt P52333).
T1 construct: The kinase domain of human JAK3 was amplified from U937mRNA; His tag (from the pFastBac HTb vector) (N); made in house; host or cells: baculovirus; Sf9 for virus, High Five insect cells for production
Nature of the assay: JAK3 kinase assay (ELISA or Alphascreen). Conditions: read-out: Jak3 inhibition of enzyme activity. An excerpt:
The kinase domain of human JAK3 was amplified from U937mRNA using the polymerase chain reaction with the following primers: […]
JAK3 PCR products were cloned into the pFastBac HTb expression vector (Gibco) via the Xho I and Kpn I sites. The JAK3 plasmid was then transformed into competent DH10Bac cells (Gibco), and the recombinant baculovirus produced prepared for transfection into Sf9 insect cells.
(§1) Baculovirus preparations from each of the JAK family members were infected into five liters of High Five cells (Invitrogen) grown in High Five serum free medium (Invitrogen) to a cell density of approximately 1-2×10^6 cells/ml. Cells are infected with virus at a MOI of 0.8-3.0. Cells were harvested and lysed. JAK kinase domains were purified by affinity chromatography on a Probond (Invitrogen) nickel chelate affinity column.
(§2) Kinase assays were performed in a 96 well capture-based ELISA assay or in 384 well Optiplates (Packard) using an Alphascreen Protein Tyrosine Kinase kit. In either case using approximately 1.5 μg of affinity purified PTK domain in the presence of 50 mM HEPES, pH 7.5, 10 mM MgCl2, 150 mM NaCl and 10 μM-1 mM ATP. The biotinylated substrate biotin-EGPWLEEEEEAYGWMDF-NH2 (SEQ ID NO:9) (final concentration 5 μM) was used as substrate. In the ELISA assay tyrosine phosphorylation was quantitated following transfer to an avidin coated ELISA plate using peroxidase-linked anti-phosphotyrosine antibody PY20. In the Alphascreen assay, Alphascreen phosphotyrosine acceptor beads followed by streptavidin donor beads were added under subdued light. The ELISA plates were read on a BMG Fluorostar, the Alphascreen plates were read on a Packard Fusion Alpha. Inhibitors were added to the assays fifteen minutes prior to the addition of ATP. Inhibitors were added in aqueous […] concentrations never exceeding 1%.

Assay [2] has as its target T2, abl (Homo sapiens, UniProt P00519).
T2 sequence (P00519 242-493 limits assumed): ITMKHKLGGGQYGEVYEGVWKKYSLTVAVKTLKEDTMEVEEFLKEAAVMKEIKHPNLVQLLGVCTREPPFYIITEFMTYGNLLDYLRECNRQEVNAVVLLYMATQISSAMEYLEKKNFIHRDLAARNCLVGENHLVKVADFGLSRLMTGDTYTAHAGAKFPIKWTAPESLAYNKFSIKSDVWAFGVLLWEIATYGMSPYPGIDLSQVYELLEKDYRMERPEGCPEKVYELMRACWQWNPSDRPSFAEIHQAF
Nature of the assay: abl kinase assay (ELISA or Alphascreen). Particulars: read-out: abl inhibition of enzyme activity. The method, then: as §2
(In general: An ELISA detects its analyte on a solid surface through an enzyme-linked reagent.)

In assay [3] the target is T3, human JAK2 (Homo sapiens, UniProt O60674).
T3 construct: The kinase domain of human JAK2 was amplified from U937mRNA; His tag (from the pFastBac HTc vector) (N); made in house; host or cells: baculovirus; Sf9 for virus, High Five insect cells for production
Nature of the assay: JAK2 kinase assay (ELISA or Alphascreen). Conditions: read-out: Jak2 inhibition of enzyme activity.
Source text: The kinase domain of human JAK2 was amplified from U937mRNA using the polymerase chain reaction with the following primers: […]
JAK2 PCR products were doped into the pFastBac HTc expression vector (Gibco) via the Sal I and Not I sites. The JAK2 plasmid was than transformed into competent DH10Bac cells (Gibco), and the recombinant baculovirus produced prepared for transfection into Sf9 insect cells.
as §1, §2

For assay [4], the target named is fes (Homo sapiens, UniProt P07332). Nature of the assay: fes kinase assay (ELISA or Alphascreen). Conditions: read-out: fes inhibition of enzyme activity. The method, then: as §2
The target in assay [5] is T4, Zap70 (Homo sapiens, UniProt P43403).
T4 sequence (P43403 338-600 limits assumed): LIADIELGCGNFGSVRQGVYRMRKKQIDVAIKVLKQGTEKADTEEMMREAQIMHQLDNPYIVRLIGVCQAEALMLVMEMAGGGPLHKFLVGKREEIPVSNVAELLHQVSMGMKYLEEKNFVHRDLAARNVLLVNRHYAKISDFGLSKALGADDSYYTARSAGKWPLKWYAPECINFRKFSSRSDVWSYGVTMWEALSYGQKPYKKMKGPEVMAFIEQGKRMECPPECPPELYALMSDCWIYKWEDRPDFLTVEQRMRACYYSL
As to the kind of experiment: Zap70 kinase assay (ELISA or Alphascreen). Particulars: read-out: Zap70 inhibition of enzyme activity. The method, then:
as §2

In assay [6] the target is T5, fms (Homo sapiens, UniProt P07333).
T5 sequence (P07333 582-910 limits assumed): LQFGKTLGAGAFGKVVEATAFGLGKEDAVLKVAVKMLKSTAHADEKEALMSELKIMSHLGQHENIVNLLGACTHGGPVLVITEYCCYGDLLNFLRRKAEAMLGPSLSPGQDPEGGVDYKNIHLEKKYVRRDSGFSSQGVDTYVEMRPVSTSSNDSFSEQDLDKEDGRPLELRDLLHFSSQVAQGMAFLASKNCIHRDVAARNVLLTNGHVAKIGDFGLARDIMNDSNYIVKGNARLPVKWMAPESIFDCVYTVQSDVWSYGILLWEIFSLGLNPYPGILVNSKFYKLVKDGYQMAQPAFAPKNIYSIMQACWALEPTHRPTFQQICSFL
Nature of the assay: fms kinase assay (ELISA or Alphascreen). Conditions: read-out: fms inhibition of enzyme activity. The method, then:
as §2

Some results are limits rather than exact numbers.

Sequence of fes (P07332 561-822 limits assumed, species assumed): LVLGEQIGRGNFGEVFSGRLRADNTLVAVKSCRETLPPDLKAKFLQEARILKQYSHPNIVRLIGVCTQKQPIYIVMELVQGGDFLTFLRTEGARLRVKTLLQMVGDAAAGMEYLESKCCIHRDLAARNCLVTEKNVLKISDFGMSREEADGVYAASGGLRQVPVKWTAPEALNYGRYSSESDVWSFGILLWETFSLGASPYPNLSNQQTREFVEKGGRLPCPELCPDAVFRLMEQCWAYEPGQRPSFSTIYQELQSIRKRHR
T1 sequence (P52333 822-1111 limits assumed): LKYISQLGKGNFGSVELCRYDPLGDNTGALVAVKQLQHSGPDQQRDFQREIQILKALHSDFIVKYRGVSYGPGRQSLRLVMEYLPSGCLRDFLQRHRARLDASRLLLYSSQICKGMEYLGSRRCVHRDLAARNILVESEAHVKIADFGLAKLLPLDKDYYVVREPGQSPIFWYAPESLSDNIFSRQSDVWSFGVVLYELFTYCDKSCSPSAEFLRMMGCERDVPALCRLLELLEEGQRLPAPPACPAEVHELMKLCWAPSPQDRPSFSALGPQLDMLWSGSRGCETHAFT
T3 sequence (O60674 849-1124 limits assumed): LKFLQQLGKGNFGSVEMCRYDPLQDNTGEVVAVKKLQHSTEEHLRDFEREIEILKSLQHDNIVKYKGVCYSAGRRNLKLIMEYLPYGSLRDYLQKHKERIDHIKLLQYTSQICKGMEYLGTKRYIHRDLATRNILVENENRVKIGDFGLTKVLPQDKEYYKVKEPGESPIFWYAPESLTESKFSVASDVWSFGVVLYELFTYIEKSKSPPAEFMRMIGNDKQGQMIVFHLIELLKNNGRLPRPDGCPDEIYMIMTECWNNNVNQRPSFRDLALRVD

On to `COc1cccc(-c2cncc(C(=O)Nc3cc(F)ccc3C)c2)c1`, for which the inhibition – broadly, the percentage by which the read-out fell short of the control – at 10 µM in assay [1] was less than 50%; in assay [2], less than 50%; in assay [3], less than 50%; in assay [4], less than 50%; in assay [5] it was no less than 50%.
Regarding `COc1cc(-c2cncc(C(=O)NCc3ccc(C)cc3)c2)c(Cl)c(OC)c1OC`, the inhibition at 10 µM in assay [1], in assay [2], in assay [3], in assay [4] and in assay [5] was less than 50% throughout.
For `Cc1ccc(C)c(CNC(=O)c2cncc(-c3cc(C)c(O)c(C)c3)c2)c1`, the inhibition at 10 µM was less than 50% in assay [1]; no less than 50% in assay [6]; no less than 50% in assay [2]; less than 50% in assay [3]; no less than 50% in assay [4]; less than 50% in assay [5].
For `O=C(NCc1ccc(F)cc1)c1cncc(-c2ccc(F)cc2)c1`, the inhibition at 10 µM in assay [1] was less than 50%; in assay [6] it was less than 50%; in assay [2] it was less than 50%; in assay [3] it was no less than 50%; in assay [4], less than 50%; in assay [5], less than 50%.
Turning to `O=C(NCCCn1ccnc1)c1cncc(-c2ccc(F)cc2)c1`, the inhibition at 10 µM in assay [1], in assay [6], in assay [3], in assay [4] and in assay [5] was less than 50% throughout.
Consider `C[C@@H](NC(=O)c1cncc(-c2ccc(F)cc2)c1)c1ccccc1`, for which the inhibition at 10 µM in assay [1], in assay [6], in assay [3], in assay [4] and in assay [5] was less than 50% in each case.
For the compound `O=C(NCc1ccco1)c1cncc(-c2cccnc2)c1`, the inhibition at 10 µM in assay [1], in assay [6], in assay [3], in assay [4] and in assay [5] was less than 50% in each case.
Regarding `COc1cc(CNC(=O)c2cncc(-c3ccc(O)cc3)c2)cc(OC)c1`, the inhibition at 10 µM in assay [1], in assay [6], in assay [2], in assay [3], in assay [4] and in assay [5] was less than 50% each time.
Regarding `COc1cccc(-c2cncc(C(=O)Nc3ccccc3C)c2)c1`, the inhibition at 10 µM in assay [1], in assay [6], in assay [2], in assay [3], in assay [4] and in assay [5] was less than 50% in each case.
As to `COc1ccc(NC(=O)c2cncc(-c3ccc(F)cc3)c2)c(OC)c1`, the inhibition at 10 µM in assay [1], in assay [6], in assay [2], in assay [3], in assay [4] and in assay [5] was less than 50% in each case.
Take `Cc1ccccc1NC(=O)c1cncc(-c2cccnc2)c1`: the inhibition at 10 µM in assay [1], in assay [6], in assay [2], in assay [3], in assay [4] and in assay [5] was less than 50% in each case.
Take `O=C(Nc1ccccc1)c1cncc(-c2ccc3c(c2)OCO3)c1`: the inhibition at 10 µM in assay [1], in assay [6], in assay [2], in assay [3], in assay [4] and in assay [5] was less than 50% each time.
On to `Cc1ccc(F)cc1NC(=O)c1cncc(-c2ccc(O)cc2)c1`, for which the inhibition at 10 µM in assay [1] is less than 50%; in assay [6], less than 50%; in assay [2] it was no less than 50%; in assay [3], less than 50%; in assay [4], less than 50%; in assay [5], less than 50%.
For `CN1CCN(c2ccc(CNC(=O)c3cncc(-c4ccc(F)cc4)c3)cc2)CC1`, the inhibition at 10 µM in assay [1], in assay [6], in assay [3], in assay [4] and in assay [5] was less than 50% throughout.
Take `CN1CCN(c2ccc(NC(=O)c3cncc(-c4ccc(F)cc4)c3)cc2)CC1`: the inhibition at 10 µM in assay [1], in assay [6], in assay [2], in assay [3] and in assay [5] was less than 50% each time.
As to `Cc1cc(F)ccc1NC(=O)c1cncc(-c2cccs2)c1`, the inhibition at 10 µM in assay [1], in assay [6], in assay [2], in assay [4] and in assay [5] was less than 50% in each case.
On to `Cc1cc(-c2cncc(C(=O)N[C@@H](C)c3ccccc3)c2)cc(C)c1O`, for which the inhibition at 10 µM in assay [6], in assay [2], in assay [3], in assay [4] and in assay [5] was less than 50% in each case.
As for `Cc1ccccc1NC(=O)c1cncc(-c2ccc(F)cc2)c1`, the inhibition at 10 µM in assay [1], in assay [2], in assay [3], in assay [4] and in assay [5] was less than 50% in each case.
For the compound `COc1ccc(NC(=O)c2cncc(-c3cc(C)c(O)c(C)c3)c2)c(OC)c1`, the inhibition at 10 µM in assay [1], in assay [2], in assay [3], in assay [4] and in assay [5] was less than 50% in each case.
In the case of `COc1cc(-c2cncc(C(=O)NC(CO)C(C)C)c2)c(Cl)c(OC)c1OC` (stereo not shown), the inhibition at 10 µM in assay [1], in assay [6], in assay [2], in assay [3] and in assay [5] was less than 50% throughout.
With `C[C@H](NC(=O)c1cncc(-c2cccnc2)c1)c1ccccc1`, the inhibition at 10 µM in assay [1], in assay [6], in assay [3], in assay [4] and in assay [5] was less than 50% in each case.
Regarding `O=C(NCc1ccc(Cl)c(Cl)c1)c1cncc(-c2ccc3c(c2)OCO3)c1`, the inhibition at 10 µM in assay [1], in assay [6], in assay [3], in assay [4] and in assay [5] was less than 50% each time.

Values taken from patent publication US8030336B2, “Nicotinamide-based kinase inhibitors” (YM Biosciences Australia Pty Ltd, priority 2002, dated 2011).
